In ChEMBL document CHEMBL1177813, “Design and synthesis of trivalent ligands targeting opioid, cholecystokinin, and melanocortin receptors for the treatment of pain” (Bioorg Med Chem Lett, 2010):
The source made the active and inactive calls. The rule behind the calls is not given here.

Legend:
[1] = target: Delta-type opioid receptor (Mus musculus, UniProt P32300); assay: Antagonist activity at delta opioid receptor in mouse vas deferens assessed as inhibition of DPDPE-induced muscle contraction; assay type: functional, tissue-based
Delta-type opioid receptor (Mus musculus, UniProt P32300), sequence (P32300 whole entry): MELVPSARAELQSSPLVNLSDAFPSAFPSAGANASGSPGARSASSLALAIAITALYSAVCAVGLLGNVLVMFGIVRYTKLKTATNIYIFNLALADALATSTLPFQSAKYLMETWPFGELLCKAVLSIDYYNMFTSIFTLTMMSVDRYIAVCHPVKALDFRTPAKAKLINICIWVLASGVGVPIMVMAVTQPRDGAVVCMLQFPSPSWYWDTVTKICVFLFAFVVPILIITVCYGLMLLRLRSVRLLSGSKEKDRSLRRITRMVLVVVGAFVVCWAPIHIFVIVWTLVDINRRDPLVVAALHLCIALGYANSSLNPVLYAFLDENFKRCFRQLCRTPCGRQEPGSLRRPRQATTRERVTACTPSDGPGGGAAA

Cavia porcellus = organism: Cavia porcellus; assay: […] activity at CCK receptor in Hartley guinea pig ileum longitudinal muscle with myenteric plexus assessed as inhibition of CCK8-stimulated muscle contraction at 1 uM; assay type: functional, tissue-based
Melanocortin receptor 4 = Melanocortin receptor 4 (Homo sapiens, UniProt P32245); assay: Displacement of Eu-NDP-alphaMSH from human MC4 receptor expressed in human HEK293 cells; assay type: cell-based
Melanocortin receptor 4, sequence (P32245 whole entry): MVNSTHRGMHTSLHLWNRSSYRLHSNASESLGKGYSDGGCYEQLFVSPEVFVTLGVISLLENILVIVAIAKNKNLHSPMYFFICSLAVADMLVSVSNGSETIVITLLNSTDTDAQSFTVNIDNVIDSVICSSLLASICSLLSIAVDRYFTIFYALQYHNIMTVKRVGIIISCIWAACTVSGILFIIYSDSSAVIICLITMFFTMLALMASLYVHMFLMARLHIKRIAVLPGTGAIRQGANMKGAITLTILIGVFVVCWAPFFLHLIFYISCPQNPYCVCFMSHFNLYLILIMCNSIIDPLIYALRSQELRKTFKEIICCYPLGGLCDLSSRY

[2] = target: Mu-type opioid receptor (Cavia porcellus) (UniProt P97266); assay: Agonist activity at mu opioid receptor in guinea pig ileum assessed as inhibition of electrically-stimulated muscle contraction at 1 uM; assay type: functional, tissue-based; set-up: scale not given: the % may be the effect or the level left
Mu-type opioid receptor (Cavia porcellus), sequence (P97266 whole entry): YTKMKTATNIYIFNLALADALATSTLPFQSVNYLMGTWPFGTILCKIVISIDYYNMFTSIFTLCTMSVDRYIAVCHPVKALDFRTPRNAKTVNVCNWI

[3] = target: Delta-type opioid receptor (Homo sapiens, UniProt P41143); assay: Displacement of [3H]DPDPE from human delta opioid receptor expressed in mouse HN9.10 cells; assay type: cell-based
Delta-type opioid receptor (Homo sapiens, UniProt P41143), sequence (P41143 whole entry): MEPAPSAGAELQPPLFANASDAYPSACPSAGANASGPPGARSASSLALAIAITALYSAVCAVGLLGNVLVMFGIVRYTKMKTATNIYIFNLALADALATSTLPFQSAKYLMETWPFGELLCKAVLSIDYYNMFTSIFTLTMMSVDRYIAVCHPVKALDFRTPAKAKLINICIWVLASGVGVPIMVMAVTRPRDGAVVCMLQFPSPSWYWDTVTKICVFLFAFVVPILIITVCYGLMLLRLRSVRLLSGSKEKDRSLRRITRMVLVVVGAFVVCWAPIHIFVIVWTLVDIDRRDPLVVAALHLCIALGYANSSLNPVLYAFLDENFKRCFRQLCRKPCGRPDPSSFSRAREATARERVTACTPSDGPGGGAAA

[4] = target: T1, Gastrin/cholecystokinin type B receptor (Homo sapiens, UniProt P32239); assay: Displacement of [125I]CCK-8(SO3) from human CCK2 receptor expressed in human HEK293 cells; assay type: cell-based
T1 sequence (P32239 whole entry): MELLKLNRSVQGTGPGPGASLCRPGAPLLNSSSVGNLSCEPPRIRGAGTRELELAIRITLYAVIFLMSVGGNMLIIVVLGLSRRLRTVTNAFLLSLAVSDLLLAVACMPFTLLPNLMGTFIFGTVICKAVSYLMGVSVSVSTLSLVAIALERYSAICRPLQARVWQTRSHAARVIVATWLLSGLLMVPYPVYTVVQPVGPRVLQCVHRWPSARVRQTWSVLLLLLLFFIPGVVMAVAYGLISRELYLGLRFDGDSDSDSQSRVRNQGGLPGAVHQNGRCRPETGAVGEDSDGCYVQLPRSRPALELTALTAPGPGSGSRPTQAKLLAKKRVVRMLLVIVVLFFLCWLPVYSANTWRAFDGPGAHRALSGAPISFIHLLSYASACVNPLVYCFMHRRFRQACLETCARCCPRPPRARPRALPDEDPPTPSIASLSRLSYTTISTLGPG

[5] = target: T2, Cholecystokinin receptor type A (Homo sapiens, UniProt P32238); assay: Displacement of [125I]CCK-8(SO3) from human CCK1 receptor expressed in human HEK293 cells; assay type: cell-based
T2 sequence (P32238 whole entry): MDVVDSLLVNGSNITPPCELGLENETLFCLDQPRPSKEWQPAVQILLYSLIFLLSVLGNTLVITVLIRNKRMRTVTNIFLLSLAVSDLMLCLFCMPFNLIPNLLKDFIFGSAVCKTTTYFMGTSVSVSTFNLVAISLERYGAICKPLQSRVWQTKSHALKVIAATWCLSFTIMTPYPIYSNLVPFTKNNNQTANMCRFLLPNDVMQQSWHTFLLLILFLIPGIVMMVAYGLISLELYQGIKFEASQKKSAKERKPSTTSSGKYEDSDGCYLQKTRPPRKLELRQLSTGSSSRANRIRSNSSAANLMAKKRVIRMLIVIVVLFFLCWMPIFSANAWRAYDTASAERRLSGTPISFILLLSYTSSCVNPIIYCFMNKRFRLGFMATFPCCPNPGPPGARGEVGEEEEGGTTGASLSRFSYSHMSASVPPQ

Mu-type opioid receptor = Mu-type opioid receptor (Rattus norvegicus, UniProt P33535); assay: Displacement of [3H]DAMGO from rat mu opioid receptor expressed in mouse HN9.10 cells; assay type: cell-based
Mu-type opioid receptor, sequence (P33535 whole entry): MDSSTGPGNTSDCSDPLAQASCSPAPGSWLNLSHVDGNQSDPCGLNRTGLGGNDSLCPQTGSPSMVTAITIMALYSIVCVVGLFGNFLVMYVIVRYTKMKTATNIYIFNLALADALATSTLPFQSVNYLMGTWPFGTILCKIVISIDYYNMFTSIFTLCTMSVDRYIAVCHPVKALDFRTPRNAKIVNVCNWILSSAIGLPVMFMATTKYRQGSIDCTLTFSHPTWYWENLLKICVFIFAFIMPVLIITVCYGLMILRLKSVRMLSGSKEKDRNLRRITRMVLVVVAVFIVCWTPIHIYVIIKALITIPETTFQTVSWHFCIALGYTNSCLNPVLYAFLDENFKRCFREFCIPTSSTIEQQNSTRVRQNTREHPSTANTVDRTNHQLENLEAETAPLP

[6] = Agonist activity at CCK receptor in Hartley guinea pig ileum longitudinal muscle with myenteric plexus assessed as inhibition of electrically-stimulated muscle contraction at 1 uM relative to KCl; assay type: functional, Cavia porcellus; set-up: scale not given: the % may be the effect or the level left

Q: Which results are given for `CCCC[C@H](NC(=O)[C@H](Cc1c[nH]c2ccccc12)NC(=O)[C@H](CCCNC(=N)N)NC(=O)[C@@H](Cc1ccc2ccccc2c1)NC(=O)[C@H](Cc1cnc[nH]1)NC(=O)[C@@H]1Cc2ccccc2CN1C(=O)C(N)Cc1c(C)cc(O)cc1C)C(=O)N[C@@H](CC(=O)O)C(=O)N[C@@H](Cc1ccccc1)C(N)=O` (single isomer, unassigned)?
A: IC50 [1]: 2.5 nM; Ke (Cavia porcellus): inactive; IC50 (Melanocortin receptor 4): 230 nM; Activity [2]: 5%; IC50 [3]: 2 nM; Ki [3]: 0.91 nM; IC50 [4]: 200 nM; Ki ([4]; read-out: Ki): 200 nM; IC50 [5]: 15.8 nM; Ki ([5]; read-out: Ki): 15 nM; IC50 (Mu-type opioid receptor): 100 nM; Ki (Mu-type opioid receptor): 47 nM; Activity [6]: 0%
